pIC50: −log10 of the molar value. Calls of active or inactive are those of the source. No cut-off for these calls is given here.
How the values were obtained:
[1] = tested on: Mus musculus; assay: Effect on DSS-induced body weight loss in ulcerative colitis male C57BL/6J mouse model at 100 mg/kg, po administered for 8 days; assay type: functional, organism-based; conditions: time 8.0 day
[2] = tested on: RAW264.7; assay: Antiinflammatory activity in mouse RAW264.7 cells assessed as inhibition of LPS-induced NO production incubated for 24 hrs; assay type: functional, cell-based; conditions: RAW264.7, 24 h
[3] = tested on: RAW264.7; assay: Antiinflammatory activity in mouse RAW264.7 cells assessed as inhibition of LPS-induced NO production at 20 uM incubated for 24 hrs relative to control; assay type: functional
[4] = Cytotoxicity against mouse RAW264.7 cells assessed as cell viability at 20 uM incubated for 24 hrs by CCK8 assay relative to control; assay type: toxicity, cell-based; conditions: read-out: Activity
[5] = tested on: RAW264.7; assay: Antiinflammatory activity in LPS-induced mouse RAW264.7 cells assessed as reduction in IL-1beta mRNA expression level at 20 uM by qRT-PCR analysis; assay type: functional, cell-based
[6] = tested on: RAW264.7; assay: Antiinflammatory activity in LPS-induced mouse RAW264.7 cells assessed as reduction in IL-6 mRNA expression level at 20 uM by qRT-PCR analysis; assay type: functional, cell-based
[7] = tested on: RAW264.7; assay: Antiinflammatory activity in LPS-induced mouse RAW264.7 cells assessed as reduction in TNF-alpha mRNA expression level at 20 uM by qRT-PCR analysis; assay type: functional, cell-based
[8] = tested on: RAW264.7; assay: Antiinflammatory activity in LPS-induced mouse RAW264.7 cells assessed as reduction in iNOS mRNA expression level at 20 uM by qRT-PCR analysis; assay type: functional, cell-based
[9] = tested on: RAW264.7; assay: Antiinflammatory activity in LPS-induced mouse RAW264.7 cells assessed as inhibition of IL-6 production at 20 uM by ELISA; assay type: functional, cell-based
[10] = tested on: RAW264.7; assay: Antiinflammatory activity in LPS-induced mouse RAW264.7 cells assessed as inhibition of TNF-alpha production at 20 uM by ELISA; assay type: functional, cell-based
[11] = tested on: RAW264.7; assay: Antiinflammatory activity in LPS-induced mouse RAW264.7 cells assessed as reduction in IL-1beta gene expression by heat map analysis; assay type: functional, cell-based
[12] = tested on: RAW264.7; assay: Antiinflammatory activity in LPS-induced mouse RAW264.7 cells assessed as reduction in IL-6 gene expression by heat map analysis; assay type: functional, cell-based
[13] = tested on: RAW264.7; assay: Antiinflammatory activity in LPS-induced mouse RAW264.7 cells assessed as reduction in Cxcl10 gene expression by heat map analysis; assay type: functional, cell-based
[14] = tested on: RAW264.7; assay: Antiinflammatory activity in LPS-induced mouse RAW264.7 cells assessed as reduction in Ccl7 gene expression by heat map analysis; assay type: functional, cell-based
[15] = tested on: RAW264.7; assay: Antiinflammatory activity in LPS-induced mouse RAW264.7 cells assessed as reduction in Ccl2 gene expression by heat map analysis; assay type: functional, cell-based
[16] = tested on: RAW264.7; assay: Inhibition of NF-kappaB transcriptional activity in LPS-induced mouse RAW264.7 cells at 20 uM by luciferase based assay; assay type: cell-based
[17] = molecular target: Transcription factor p65 (Mus musculus) (UniProt Q04207); assay: Inhibition of p65 activation in LPS-induced mouse RAW264.7 cells at 20 uM by Western blot analysis; assay type: cell-based
[18] = tested on: RAW264.7; assay: Inhibition of ERK phosphorylation in LPS-induced mouse RAW264.7 cells at 20 uM by Western blot analysis; assay type: cell-based
[19] = molecular target: c-Jun N-terminal kinase (Mus musculus) (UniProt Q91Y86+Q9WTU6+Q61831); assay: Inhibition of JNK phosphorylation in LPS-induced mouse RAW264.7 cells at 20 uM by Western blot analysis; assay type: cell-based
[20] = tested on: RAW264.7; assay: Inhibition of P38 phosphorylation in LPS-induced mouse RAW264.7 cells at 20 uM by Western blot analysis; assay type: cell-based
[21] = tested on: Mus musculus; assay: Effect on DSS-induced body weight loss in ulcerative colitis male C57BL/6J mouse model at 15 mg/kg, po administered for 8 days; assay type: functional, organism-based; conditions: time 8.0 day
[22] = tested on: Mus musculus; assay: Antiinflammatory activity against DSS-induced ulcerative colitis C57BL/6J mouse model assessed as reduction in DAI score at 15 mg/kg, po administered for 8 days; assay type: functional, organism-based; conditions: time 8.0 day
[23] = tested on: Mus musculus; assay: Antiinflammatory activity against DSS-induced ulcerative colitis C57BL/6J mouse model assessed as reduction in H and E histopathological score at 15 mg/kg, po administered for 8 days by H and E staining based analysis; assay type: functional, organism-based; conditions: time 8.0 day
[24] = tested on: Mus musculus; assay: Antiinflammatory activity against DSS-induced ulcerative colitis C57BL/6J mouse model assessed as reduction in intestinal epithelial destruction in colon at 15 mg/kg, po administered for 8 days by Hand E staining based histopathological analysis; assay type: functional, organism-based; conditions: time 8.0 day
[25] = tested on: Mus musculus; assay: Antiinflammatory activity against DSS-induced ulcerative colitis C57BL/6J mouse model assessed as reduction in inflammatory cell infiltration in colon at 15 mg/kg, po administered for 8 days by Hand E staining based histopathological analysis; assay type: functional, organism-based; conditions: time 8.0 day
[26] = tested on: Mus musculus; assay: Antiinflammatory activity against DSS-induced ulcerative colitis C57BL/6J mouse model assessed as reduction in goblet cell loss in colon at 15 mg/kg, po administered for 8 days by alcian blue staining based analysis; assay type: functional, organism-based; conditions: time 8.0 day
[27] = tested on: Mus musculus; assay: Antiinflammatory activity against DSS-induced ulcerative colitis C57BL/6J mouse model assessed as increase in […] protein level in colon at 15 mg/kg, po administered for 8 days by Western blot analysis; assay type: functional, organism-based; conditions: time 8.0 day
[28] = tested on: Mus musculus; assay: Antiinflammatory activity against DSS-induced ulcerative colitis C57BL/6J mouse model assessed as increase in CLAUDIN-1 protein level in colon at 15 mg/kg, po administered for 8 days by Western blot analysis; assay type: functional, organism-based; conditions: time 8.0 day
[29] = tested on: Mus musculus; assay: Antiinflammatory activity against DSS-induced ulcerative colitis C57BL/6J mouse model assessed as increase in OCCLUDIN protein level in colon at 15 mg/kg, po administered for 8 days by Western blot analysis; assay type: functional, organism-based; conditions: time 8.0 day
[30] = tested on: Mus musculus; assay: Antiinflammatory activity against DSS-induced ulcerative colitis C57BL/6J mouse model assessed as reduction in IL-1beta mRNA expression level in colon at 15 mg/kg, po administered for 8 days by qRT-PCR analysis; assay type: functional, organism-based; conditions: time 8.0 day
[31] = tested on: Mus musculus; assay: Antiinflammatory activity against DSS-induced ulcerative colitis C57BL/6J mouse model assessed as reduction in TNF-alpha mRNA expression level in colon at 15 mg/kg, po administered for 8 days by qRT-PCR analysis; assay type: functional, organism-based; conditions: time 8.0 day
[32] = tested on: Mus musculus; assay: Antiinflammatory activity against DSS-induced ulcerative colitis C57BL/6J mouse model assessed as reduction in iNOS mRNA expression level in colon at 15 mg/kg, po administered for 8 days by qRT-PCR analysis; assay type: functional, organism-based; conditions: time 8.0 day
[33] = tested on: Mus musculus; assay: Antiinflammatory activity against DSS-induced ulcerative colitis C57BL/6J mouse model assessed as reduction in Ccl2 mRNA expression level in colon at 15 mg/kg, po administered for 8 days by qRT-PCR analysis; assay type: functional, organism-based; conditions: time 8.0 day

Chain of c-Jun N-terminal kinase (Mus musculus) (Q61831 whole entry, looked up): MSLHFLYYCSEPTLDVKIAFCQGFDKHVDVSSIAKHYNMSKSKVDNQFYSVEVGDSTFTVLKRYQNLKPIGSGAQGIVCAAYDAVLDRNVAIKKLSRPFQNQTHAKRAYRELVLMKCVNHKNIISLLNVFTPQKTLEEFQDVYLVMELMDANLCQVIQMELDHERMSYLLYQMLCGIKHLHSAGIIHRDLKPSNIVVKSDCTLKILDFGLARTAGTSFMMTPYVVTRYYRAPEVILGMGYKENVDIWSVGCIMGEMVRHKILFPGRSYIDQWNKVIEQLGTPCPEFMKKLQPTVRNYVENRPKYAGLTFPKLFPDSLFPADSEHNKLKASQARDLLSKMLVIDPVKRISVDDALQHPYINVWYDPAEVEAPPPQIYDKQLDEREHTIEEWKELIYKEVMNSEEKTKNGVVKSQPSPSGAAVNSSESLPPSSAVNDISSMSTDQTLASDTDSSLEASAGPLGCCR
Chain of c-Jun N-terminal kinase (Mus musculus) (Q91Y86 whole entry, looked up): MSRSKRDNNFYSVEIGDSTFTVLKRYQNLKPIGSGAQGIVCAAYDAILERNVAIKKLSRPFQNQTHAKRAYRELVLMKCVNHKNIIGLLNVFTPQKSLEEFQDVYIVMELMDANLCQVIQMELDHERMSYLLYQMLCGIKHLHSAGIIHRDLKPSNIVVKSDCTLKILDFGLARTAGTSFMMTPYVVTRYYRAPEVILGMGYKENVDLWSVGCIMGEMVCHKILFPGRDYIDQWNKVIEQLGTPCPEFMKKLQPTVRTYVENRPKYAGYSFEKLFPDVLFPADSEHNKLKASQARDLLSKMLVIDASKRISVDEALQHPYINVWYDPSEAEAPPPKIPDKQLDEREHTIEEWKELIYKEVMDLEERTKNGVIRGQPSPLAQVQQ
Chain of c-Jun N-terminal kinase (Mus musculus) (Q9WTU6 whole entry, looked up): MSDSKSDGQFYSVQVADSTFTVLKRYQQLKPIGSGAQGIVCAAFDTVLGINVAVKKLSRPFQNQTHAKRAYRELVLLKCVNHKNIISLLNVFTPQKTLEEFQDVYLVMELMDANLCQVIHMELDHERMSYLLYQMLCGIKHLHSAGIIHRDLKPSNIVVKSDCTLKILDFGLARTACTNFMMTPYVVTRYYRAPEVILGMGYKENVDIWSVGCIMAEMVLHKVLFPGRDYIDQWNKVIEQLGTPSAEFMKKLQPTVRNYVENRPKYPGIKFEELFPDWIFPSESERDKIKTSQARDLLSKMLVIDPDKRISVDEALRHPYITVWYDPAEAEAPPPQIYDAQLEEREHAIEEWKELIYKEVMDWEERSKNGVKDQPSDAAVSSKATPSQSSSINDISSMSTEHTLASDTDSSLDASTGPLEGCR
Chain of Transcription factor p65 (Mus musculus) (Q04207 whole entry): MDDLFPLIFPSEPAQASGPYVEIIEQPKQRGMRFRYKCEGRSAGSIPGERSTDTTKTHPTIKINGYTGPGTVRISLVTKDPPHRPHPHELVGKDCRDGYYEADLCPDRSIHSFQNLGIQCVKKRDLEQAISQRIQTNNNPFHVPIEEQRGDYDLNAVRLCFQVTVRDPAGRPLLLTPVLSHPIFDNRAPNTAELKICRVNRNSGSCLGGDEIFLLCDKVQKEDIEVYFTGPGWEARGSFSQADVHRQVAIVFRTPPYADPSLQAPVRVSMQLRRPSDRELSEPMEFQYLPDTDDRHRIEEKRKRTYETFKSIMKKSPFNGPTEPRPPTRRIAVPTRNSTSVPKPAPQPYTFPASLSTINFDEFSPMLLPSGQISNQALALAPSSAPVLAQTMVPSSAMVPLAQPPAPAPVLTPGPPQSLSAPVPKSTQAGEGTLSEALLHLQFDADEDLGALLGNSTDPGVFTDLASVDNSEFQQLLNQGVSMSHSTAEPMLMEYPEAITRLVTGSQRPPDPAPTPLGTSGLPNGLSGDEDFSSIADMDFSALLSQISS

With `Nc1ccc(O)c(C(=O)O)c1` as the compound, how does the Activity [1] read?
Its Activity is “inactive”.

Which results are given for `C=C1C(=O)O[C@]2(C)CC[C@@H]1C[C@@H]1O[C@@]1(C)CC/C=C(\C)CCC2=O`?
pIC50 [2]: 6.05; inhibition at 20 µM [3]: 134%; viability at 24 h, 20 µM [4]: 82.7%; Activity [5]: Active; Activity [6]: Active; Activity [7]: Active; Activity [8]: Active; Activity [9]: Active; Activity [10]: Active; Activity [11]: Active; Activity [12]: Active; Activity [13]: Active; Activity [14]: Active; Activity [15]: Active; inhibition [16]: Active; inhibition [17]: Active; inhibition [18]: Active; inhibition [19]: Active; inhibition [20]: inactive; Activity [21]: inactive; Activity [22]: Active; Activity [23]: Active; Activity [24]: Active; Activity [25]: Active; Activity [26]: Active; Activity [27]: Active; Activity [28]: Active; Activity [29]: Active; Activity [30]: Active; Activity [31]: Active; Activity [32]: Active; Activity [33]: Active
